Measured values as given in patent publication US6518410B2, “Sulfoquinovosylacylglycerol derivative, and use thereof as medicaments” (Toyo Suisan Kaisha, Ltd., priority 1999, dated 2003).

How the values were obtained:
[1] = target: T1, DNA polymerase α isolated from the bovine thymus (Bos taurus, UniProt A0AAA9TD94); test: Inhibitory effect against DNA polymerase α; assay type: biochemical; conditions: 0.05 U enzyme, 37° C., 60 minutes; mixture of S- and R-configurations; read-out: IC50, Inhibition Activity against DNA Polymerase α (converted)
T1 construct: isolated from the bovine thymus and purified with an antibody column; from tissue; host or cells: bovine thymus
T1 sequence (A0AAA9TD94 1-1441): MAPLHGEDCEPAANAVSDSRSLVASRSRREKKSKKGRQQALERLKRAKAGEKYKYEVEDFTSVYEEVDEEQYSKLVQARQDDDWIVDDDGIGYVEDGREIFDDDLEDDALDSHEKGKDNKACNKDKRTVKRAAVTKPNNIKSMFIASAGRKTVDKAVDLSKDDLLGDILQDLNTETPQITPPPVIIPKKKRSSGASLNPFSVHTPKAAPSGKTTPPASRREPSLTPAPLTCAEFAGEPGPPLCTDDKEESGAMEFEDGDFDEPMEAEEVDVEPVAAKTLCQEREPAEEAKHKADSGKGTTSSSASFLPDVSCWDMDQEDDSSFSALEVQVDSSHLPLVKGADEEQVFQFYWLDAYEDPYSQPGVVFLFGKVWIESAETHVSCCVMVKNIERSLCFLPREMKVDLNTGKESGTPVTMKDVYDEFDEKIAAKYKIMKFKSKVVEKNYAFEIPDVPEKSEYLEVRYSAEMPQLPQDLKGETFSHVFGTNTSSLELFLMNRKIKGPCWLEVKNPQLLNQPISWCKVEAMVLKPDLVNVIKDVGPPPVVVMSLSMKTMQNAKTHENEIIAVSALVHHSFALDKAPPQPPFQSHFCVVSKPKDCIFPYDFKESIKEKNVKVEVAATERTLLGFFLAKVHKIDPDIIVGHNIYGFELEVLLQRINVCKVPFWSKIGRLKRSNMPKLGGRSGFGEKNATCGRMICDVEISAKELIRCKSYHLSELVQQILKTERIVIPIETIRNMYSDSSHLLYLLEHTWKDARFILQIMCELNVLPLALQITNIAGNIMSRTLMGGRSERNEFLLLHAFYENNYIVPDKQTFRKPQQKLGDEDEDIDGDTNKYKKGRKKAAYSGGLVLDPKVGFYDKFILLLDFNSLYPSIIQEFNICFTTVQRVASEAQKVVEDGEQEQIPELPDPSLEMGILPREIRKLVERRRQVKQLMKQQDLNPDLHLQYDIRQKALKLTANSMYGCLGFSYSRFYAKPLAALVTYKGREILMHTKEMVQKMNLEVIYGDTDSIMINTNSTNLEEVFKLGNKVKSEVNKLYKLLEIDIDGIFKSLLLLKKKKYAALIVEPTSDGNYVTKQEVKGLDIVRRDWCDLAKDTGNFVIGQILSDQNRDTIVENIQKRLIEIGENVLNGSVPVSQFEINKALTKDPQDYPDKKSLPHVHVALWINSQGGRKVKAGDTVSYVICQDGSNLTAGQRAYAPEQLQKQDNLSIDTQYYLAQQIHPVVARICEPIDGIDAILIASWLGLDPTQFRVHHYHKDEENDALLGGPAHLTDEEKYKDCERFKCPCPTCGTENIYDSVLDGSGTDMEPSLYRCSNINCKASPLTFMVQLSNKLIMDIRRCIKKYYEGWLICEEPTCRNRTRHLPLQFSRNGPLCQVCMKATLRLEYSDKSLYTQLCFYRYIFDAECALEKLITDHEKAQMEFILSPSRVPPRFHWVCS
Experimental: An assay on inhibitory effect against a DNA polymerase α was carried out in the following manner.
0.05 U of a DNA polymerase α isolated from the bovine thymus and purified with an antibody column was mixed with each of compounds SQAG 1 to SQAG 14 listed in Table 1 above, each of which was dissolved in DMSO. Each mixture was added with a buffer of an inorganic salt necessary for the enzymatic reaction, [^3H]-labeled dTTP, and a compound for reaction containing a template DNA chain, and was incubated at 37° C. for 60 minutes.
After the enzymatic reaction was stopped, the resultant product was fixed on a dedicated filter to make measurement by a liquid scintillation counter. The amount of enzymatically synthesized dTTP was calculated as a radiation dose (cpm) of [^3H].

Colon cancer cells DLD-1 = test: Anticancer activity against cultured colon cancer cells (MTT assay); assay type: cell-based; conditions: Homo sapiens, DLD-1, 48 hours, mixture of S- and R-configurations, read-out: IC50, Anti-Cancer Activity against Colon Cancer Cells
Experimental: An assay on anticancer activity against cultured colon cancer cells was carried out in the following manner.
(§1) Colon cancer cells DLD-1 were maintained and subcultured in RPMI 1640 medium (containing 10% calf serum). Each of compounds SQAG 1, SQAG 2, SQAG 4, SQAG 6, SQAG 8, SQAG 11, SQAG 12, SQAG 13 and SQAG 14 shown in Table 1 was suspended and diluted in the medium, and then was cultivated in a 96-well plate together with the cancer cells at 3×10^3 cells/well. After the culture has been incubated for 48 hours, the MTT assay (Mosmann, T: Journal of immunological Method, 65, 55-63 (1983)) was carried out to compare viability rates.

[2] = test system: gastric cancer cells NUGC-3; test: Anticancer activity against cultured gastric cancer cells (MTT assay); assay type: cell-based; conditions: Homo sapiens, NUGC-3, 48 hours, mixture of S- and R-configurations
Experimental: as §1
An assay on anticancer activity against cultured gastric cancer cells was carried out in the same manner as in the assay 4 except that gastric cancer cells NUGC-3 were used instead of the colon cancer cells DLD-1.

[3] = test system: LEW rat skin graft on ACI rats; test: Rejection test in skin graft; assay type: in vivo; conditions: 10 mL of 1 mg/mL intraperitoneally daily for five days, graft taken on the seventh day
Experimental: Rejection test in skin graft
ACI rats and LEW rats were prepared and subjected to inhalation anesthesia of ether. After shaving the dorsum of each ACI rat, posterior lateral skin (1×1 cm) was removed to form a skin-flayed wound, and then a hemostatic treatment was performed. On the other hand, a piece of skin (1×1 cm) was obtained from the tail of each LEW rat. The donor skin was applied to the skin-flayed wound of each ACI rat and sutured with 5-0 nylon sutures. Then, gauze was applied to the surgically operated portion and a corset with a rubber bandage was further attached thereon to protect it. Such a skin transplantation operation was applied to all ten ACI rats in the same manner. Of the ten ACT rats, five rats were selected at random and classified as a control group, and the remaining five rats were classified as a test group to which test substances are to be administered. To the control group, 10 mL of physiological saline was intraperitoneally injected daily for five days after the surgery. To the test group, 10 mL solution of SQAG 9 dissolved in physiological saline at a concentration of 1 mg/mL was intraperitoneally injected daily for five days after the surgery in the same manner as in the control group.
On the seventh day after the operation, a graft was taken to prepare a tissue specimen. […]

[4] = test system: responder cells (T lymphocytes) with mitomycin C treated stimulator lymphocytes; test: Mixed lymphocytes reaction ([3H]-thymidine uptake of responder cells); assay type: cell-based, healthy persons; conditions: 4 days culture, then 12 hours [3H]-thymidine; FIGS. 1-4
Experimental: Mixed lymphocytes reaction
Lymphocytes serving as stimulator cells and responder cells were prepared from blood taken from individual healthy persons.
The responder cells were further separated from the lymphocyte cells to give T lymphocytes alone.
No treatment was applied to the responder cells. 10^6/mL of the stimulator cells were treated with 10 μg/mL of mitomycin C to stop the cell growth. Thereafter, the stimulator cells were washed with PBS (phosphate buffer saline) 4 times.
Subsequently, the responder cells were inoculated at a rate of 10^5 cells per well and then test substances (compounds SQAG 3, SQAG 5, SQAG 7, and SQAG 9 listed in Table 6 below) were added to a predetermined concentration. The reaction mixture was cultured at 37° C. for one hour. Thereafter, the stimulator cells were added at a rate of 10^5 cells per well. The mixture was cultured in a CO2 incubator at 37° C. for 4 days. After the incubation, the proliferation ability of the responder cells was quantified as follows. […] Then, the amount of [^3H]-thymidine uptake into the cells was determined by a scintillation counter.
FIGS. 1-4 show the amounts of [^3H]-thymidine uptake when SQAG 3, SQAG 5, SQAG 7, and SQAG 9 are added. […] In each of the FIGS. 1-4, the vertical axis indicates the intensity of radioactivity and the horizontal axis indicates the concentration of the test substance.

Compound | IC50 [1] [nM] | IC50 (Colon cancer cells DLD-1) [µg/mL] | IC50 [2] [µg/mL] | necrosis of the epidermal layer of the graft (histological observation) [3] | rats in which some parts of the epidermis adhered to the dermis (rejection suppressed) [3] | immunosuppressive activity (amount of [3H]-thymidine uptake) [4]
CCCCCCCCCCCCCC(=O)OCC(CO[C@H]1O[C@H](CS(=O)(=O)O)[C@@H](O)[C@H](O)[C@H]1O)OC(=O)CCCCCCCCCCCCC (mixture of isomers) [SQAG 1] | 1080 | 38 | 32 |  |  | 
CCCCCCCCCCCCCC(=O)OCC(O)CO[C@H]1O[C@H](CS(=O)(=O)O)[C@@H](O)[C@H](O)[C@H]1O (mixture of isomers) [SQAG 2] | 8510 | 40 | 40 |  |  | 
CCCCCCCCCCCCCCCC(=O)OCC(O)CO[C@H]1O[C@H](CS(=O)(=O)O)[C@@H](O)[C@H](O)[C@H]1O (mixture of isomers) [SQAG 4] | 6290 | 31 | 40 |  |  | 
CCCCCCCCCCCCCCCCCC(=O)OCC(CO[C@H]1O[C@H](CS(=O)(=O)O)[C@@H](O)[C@H](O)[C@H]1O)OC(=O)CCCCCCCCCCCCCCCCC (mixture of isomers) [SQAG 5] | 352 |  |  |  |  | 
CCCCCCCCCCCCCCCCCC(=O)OCC(O)CO[C@H]1O[C@H](CS(=O)(=O)O)[C@@H](O)[C@H](O)[C@H]1O (mixture of isomers) [SQAG 6] | 4100 | 30 | 37.5 |  |  | 
CCCCCCCCCCCCCCCC(=O)OCC(CO[C@@H]1O[C@H](CS(=O)(=O)O)[C@@H](O)[C@H](O)[C@H]1O)OC(=O)CCCCCCCCCCCCCCC (mixture of isomers) [SQAG 7] | 377 |  |  |  |  | 
CCCCCCCCCCCCCCCC(=O)OCC(O)CO[C@@H]1O[C@H](CS(=O)(=O)O)[C@@H](O)[C@H](O)[C@H]1O (mixture of isomers) [SQAG 8] | 7190 | 42 | 50 |  |  | 
CCCCCCCCCCCCCCCCCC(=O)OCC(CO[C@@H]1O[C@H](CS(=O)(=O)O)[C@@H](O)[C@H](O)[C@H]1O)OC(=O)CCCCCCCCCCCCCCCCC (mixture of isomers) [SQAG 9] | 352 |  |  | three out of five rats | remaining two rats | considerably higher immunosuppressive activity than other compounds
CCCCCCCCCCCCCCCCCC(=O)OCC(O)CO[C@@H]1O[C@H](CS(=O)(=O)O)[C@@H](O)[C@H](O)[C@H]1O (mixture of isomers) [SQAG 10] | 5130 |  |  |  |  | 
CCCCCCCCCCCCCCCCCCCC(=O)OCC(O)CO[C@H]1O[C@H](CS(=O)(=O)O)[C@@H](O)[C@H](O)[C@H]1O (mixture of isomers) [SQAG 11] | 1960 | 28 | 24 |  |  | 
CCCCCCCCCCCCCCCCCCCCCC(=O)OCC(O)CO[C@H]1O[C@H](CS(=O)(=O)O)[C@@H](O)[C@H](O)[C@H]1O (mixture of isomers) [SQAG 12] | 1560 | 20 | 23 |  |  | 
CCCCCCCCCCCCCCCCCCCCCCCC(=O)OCC(O)CO[C@H]1O[C@H](CS(=O)(=O)O)[C@@H](O)[C@H](O)[C@H]1O (mixture of isomers) [SQAG 13] | 1490 | 20 | 20 |  |  | 
CCCCCCCCCCCCCCCCCCCCCCCCCC(=O)OCC(O)CO[C@H]1O[C@H](CS(=O)(=O)O)[C@@H](O)[C@H](O)[C@H]1O (mixture of isomers) [SQAG 14] | 1430 | 18 | 20 |  |  | 
CCCCCCCCCCCCCCCC(=O)OCC(CO[C@H]1O[C@H](CS(=O)(=O)O)[C@@H](O)[C@H](O)[C@H]1O)OC(=O)CCCCCCCCCCCCCCC (some centres unmarked) [SQAG 3] | 503 |  |  |  |  | 
